Format in all cases: in vivo
In assay [1] the test system is hepcidin knockout mice (HAMP−/−). Nature of the assay: Mild renal IRI in HAMP-/- mice: plasma creatinine, histology, NGAL. As to conditions: for plasma creatinine: HAMP-/- mice, single 50 μg bolus of hepcidin 24 hours before 24 min ischemia, 24 hours reperfusion, p<0.0007; for renal histology (H&E): hepcidin treated HAMP-/- IRI mice. How it is done: (§1) All experiments were performed in accordance with the National Institutes of Health and Institutional Animal Care and Use Guidelines. The Animal Care and Use Committee of the University of Virginia approved all procedures and protocols. C57BL/6 mice from the Jackson Laboratory and hepcidin knockout mice (HAMP−/−), a kind gift from Dr Cindy Roy (John Hopkins University) were used in this study. All experiments were performed on 8-10 weeks old male mice. Kidney ischemia-reperfusion surgery was performed as previously reported (44). The core temperature of the mice was maintained between 34° C. and 36° C. using a heating pad. After anesthetizing the mice (ketamine, 12 mg/ml; atropine, 0.48 mg/ml; xylazine, 24 mg/ml; […] mixture administered per 20 g body weight), bilateral flank incisions were made, both renal pedicles were exposed, and cross-clamped for 26 minutes (severe I/R injury) or 24 minutes (mild I/R injury). After the determined ischemia, clamps were removed, and kidneys were allowed to reperfuse for 24 hours. Ambient postoperative air temperature was maintained between 30° C. and 32° C. until mice had fully recovered. Sham-operated animals underwent bilateral flank incisions without clamping of renal pedicles. Twenty-four hours later, mice were euthanized, and tissues were harvested.
(§2) Renal function was determined by measurement of plasma creatinine, determined using a modified Jaffe colorimetric assay (44).
(§3) Kidneys were fixed in buffered formalin for 48 h, embedded in paraffin, sectioned (3-μm thickness), and stained with hematoxylin and eosin (H&E). The extent of acute tubular necrosis (ATN) following IRI was assessed using H&E stained kidney sections. An investigator blinded to the sample identities was used for these analyses to have an unbiased approach.
(§4) For RNA isolation, frozen tissues were re-suspended in RLT buffer (Qiagen Inc, Valencia, Calif.) and homogenized using TissueLyser system (Qiagen Inc, Valencia, Calif.). Total RNA from tissue homogenate was purified using RNAeasy mini kit (Qiagen Inc, Valencia, Calif.) following manufacturers instructions. 1 μg of RNA was used to synthesize cDNA using the iScript cDNA synthesis kit (Bio-Rad). The cDNA template was mixed with iTAQ SYBR green universal super mix (Bio-Rad) and quantitative PCR was carried out on CFX Connect system (Bio-Rad). Predesigned primers for Caspase-3 and Bcl-2 were purchased from Bio-rad. Glyceraldehyde-3-phosphate dehydrogenase (GAPDH) was amplified in parallel and used as the reference gene in quantification. Data is expressed as the relative gene expression and was calculated using the 2 (−ρρC(T)) method.
Given the significance of hepcidin-mediated ferroportin regulation in preventing renal IRI, we hypothesized that genetic hepcidin deficiency would aggravate IRI. […] There was no significant rise in plasma creatinine after mild IRI in the WT mice and sham operated HAMP^−/− mice (FIG. 6a). […] Renal histology further corroborated the deleterious effect of hepcidin deficiency in AKI. There were higher numbers of casts and necrotic tubules in the S1, S2 and S3 segments in HAMP^−/− kidneys after IRI (FIG. 6b, and Sup FIG. 3b). To investigate if hepcidin re-constitution could rescue HAMP^−/− mice from IRI, we injected these mice with a single 50 μg bolus of hepcidin, 24 hours before renal ischemia and sacrificed them 24 hours after reperfusion. Strikingly, a single injection of hepcidin afforded an almost complete protection against IRI in the HAMP^−/− mice.

A short description of assay [2]: Proteinuria (data not shown).
The subject of assay [3] is folic acid induced acute kidney injury. Nature of the assay: Folic acid induced acute kidney injury (data not shown).
Assay [4] deals with C57BL/6 mice. Nature of the assay: Renal IRI in WT mice: Western blot of kidney ferroportin and H-Ferritin. Conditions: for kidney ferroportin expression (membrane fraction): pretreatment with hepcidin, p<0.01, FIG. 5a-b. How it is done:
as §1, with “harvested. […]” for “harvested.”
Snap frozen tissue sections were homogenized in Tris-Triton tissue lysis buffer containing complete protease inhibitor cocktail using a Dounce Homogenizer. […] H-Ferritin was measured in the whole kidney and spleen lysates. […] The primary antibodies were detected with Donkey anti-goat Alexa 800 and goat anti-rabbit Alexa 800 antibodies (LiCor Bioscience). Mouse monoclonal GAPDH and β-Actin (Abcam) were used as the loading controls and detected using Donkey anti Mouse Alexa 680 antibody (LiCor Bioscience). Quantitation of data was performed using densitometry software (Licor Bioscience).

Assay [5] deals with C57BL/6 mice. In words: Renal IRI in WT mice: plasma creatinine, H&E histology, NGAL. How it is done: as §1
Animals were divided into three groups, injected intraperitoneally with water and underwent IRI (IRI), injected intraperitoneally with 50-100 μg hepcidin at different time points prior to IRI (Hepcidin-IRI) or were sham operated (Sham). The experimental design is depicted in FIG. 2a.
as §2, §3, §4

Assay [6] has as its system hepcidin knockout mice (HAMP−/−). Nature of the assay: Renal IRI in HAMP-/- mice: serum IL-6 by ELISA. As to conditions: HAMP-/- IRI Vs HAMP-/- Hepcidin-IRI, p<0.05; FIG. 10b. How it is done:
as §1, with “Twenty-four hours later, mice were euthanized, and tissues were harvested.” left out
(§5) Serum iron (Abcam), hepcidin (Intrinsic Lifescience) and IL-6 levels (eBioscience) were measured using commercial ELISA kits, as per manufacturers instructions.

For assay [7] the test system is unchanged. Nature of the assay: Mild renal IRI in HAMP-/- mice: serum iron and tissue non-heme iron. Conditions: for serum iron / liver non-heme iron content: HAMP-/- hepcidin-IRI vs untreated IRI p<0.005, vs sham p<0.0005; for serum iron: FIG. 6e; for liver non-heme iron content: FIG. 6f. How it is done: as §1, §5
Non-heme iron content in tissue was measured using the method described in published literature with slight modifications (60). Briefly, tissues were accurately weighed, finely cut and placed for 20 hours at 65° C. in a solution of 3M HCl/0.61 M trichloroacetic acid. After cooling to room temperature, the acid extract was spun at 12,000 rpm to collect the supernatant. 0.1 mL of the supernatant was incubated with chromogen solution (1.86 mM bathophenanthroline sulfonate/143 mM thioglycollic acid) for 20 minutes, and OD was measured at 535 nm. A standard curve was generated using an iron standard solution (Ricca Iron AA standard) against water as the blank. Non-heme iron content (μg/g) was calculated using the equation described (60).
We measured the serum iron and non-heme iron content in the kidney, spleen and liver of sham, untreated and hepcidin injected HAMP^−/− mice after IRI.

One substance from patent US11020457B2, “Compositions and methods for protecting the kidney from ischemia reperfusion injury” (University of Virginia Patent Foundation, priority 2013, dated 2021) can be followed below.

Entries after “also recorded” stand apart in the source; their conditions may differ.

On to “Mouse hepcidin 25 (DTNFPICIFCCKCCNNSQCGICCKT; listed as Mus musculus)”, for which the “kidney NGAL expression” value in assay [1] (HAMP-/- IRI Vs HAMP-/- Hepcidin-IRI, p<0.05) is listed as “significantly lowered NGAL expression”; in the assay with C57BL/6 mice [5] (IRI Vs Hepcidin-IRI, p<0.001), “significantly lower expression of NGAL”. Besides, the plasma creatinine result in assay [1] is “not significantly different than shams and WT mice”; in assay [1] (listed as hepcidin) it was “significantly lower compared to untreated mice with levels comparable to that in sham-operated mice”; in the assay with C57BL/6 mice [5] (hepcidin 50 μg injected 2 hours prior to IRI, p<0.001 vs untreated IRI), “significantly reduced plasma creatinine levels”; in the assay with C57BL/6 mice [5] (hepcidin 50 μg injected 8 hours prior to IRI, p<0.001 vs untreated IRI), “significantly reduced plasma creatinine levels”; in the assay with C57BL/6 mice [5] (single bolus of 50 or 100 μg hepcidin intraperitoneally, 24 hours before IRI, measured 24 hours after IRI, p<0.0001), “significantly lowered plasma creatinine levels; also recorded: maximum protection”. The entries for the “renal histology (H&E)” value in assay [1] and in assay [1] (listed as hepcidin) were “Hepcidin mediated protection of the kidney after IRI” and “remarkable preservation of renal histology”, respectively. Besides, the proteinuria entry in assay [2] is given as “reducing proteinuria”. In addition, the “protection against folic acid induced acute kidney injury” value in assay [3] is recorded as “protective against folic acid induced acute kidney injury”. The “kidney H-Ferritin expression” value in the assay with C57BL/6 mice [4] (hepcidin-IRI Vs IRI p<0.005, Vs Sham p<0.05, FIG. 5c-d) is “significantly higher H-Ferritin expression compared to both untreated IRI mice and sham mice; also recorded: prevented”. Moreover, the figures for the “kidney ferroportin expression (membrane fraction)” value with C57BL/6 mice [4] and in the assay with C57BL/6 mice [4] (listed as hepcidin) were “prevented the IRI induced upregulation” and “levels comparable to sham mice”, respectively. For the same substance, the “plasma creatinine, comparison of doses” value in the assay with C57BL/6 mice [5] (50 versus 100 μg hepcidin, 24 hours before IRI) is listed as “no significant differences in plasma creatinine”. For the same substance, in the assay with C57BL/6 mice [5] (hepcidin 50 μg 24 hours before IRI, FIG. 2e), the “renal architecture / tubular necrosis (H&E)” value is “fewer necrotic tubules and luminal debris”. Besides, the “serum IL-6 levels” value in assay [6] is reported as “prevented IRI-induced increase in IL-6 levels; also recorded: significantly reduced serum IL6 compared to untreated”. Besides, the serum iron entry in assay [7] is listed as “significantly reduced serum iron”; in assay [7] (listed as hepcidin), “significantly lowered serum iron”. The “liver non-heme iron content” value in assay [7] is listed as “significantly higher non-heme iron”; in assay [7] (listed as hepcidin), “significantly higher than the untreated”. For the same substance, in assay [7] (hepcidin-treated HAMP-/- mice), the “splenic iron content by Prussian blue staining” value is recorded as “qualitative increases in splenic iron content”. In addition, the “non-heme iron content of the spleen and kidneys” value in assay [7] (sham, untreated and hepcidin injected HAMP-/- mice after IRI (data not shown)) was “could not detect quantitative differences”.
